{
  "source": "ChEMBL document CHEMBL4602729",
  "about": "“O-Alkyl Hydroxamates Display Potent and Selective Antileishmanial Activity” (J Med Chem, 2020)",
  "key": {"[1]": {"assay": "Solubility of the compound in water", "type": "physicochemical"}, "[2]": {"system": "Leishmania major", "assay": "Antileishmanial activity against Leishmania major MON-4 intracellular amastigotes", "type": "functional, organism-based", "settings": "Leishmania major, MON-4"}, "[3]": {"system": "Leishmania tropica", "assay": "Antileishmanial activity against Leishmania tropica MON-102 intracellular amastigotes", "type": "functional, organism-based", "settings": "Leishmania tropica, MON-102"}, "[4]": {"system": "Leishmania donovani", "assay": "Antileishmanial activity against Leishmania donovani MON-2 intracellular amastigotes", "type": "functional, organism-based", "settings": "Leishmania donovani, MON-2"}, "[5]": {"assay": "Cytotoxicity against mouse L929 cells assessed as reduction in cell viability measured after 72 hrs by tryphan blue assay", "type": "cell-based", "settings": "L929 cells"}, "[6]": {"system": "Leishmania infantum", "assay": "Antileishmanial activity against Leishmania infantum MON-1 intracellular amastigotes infected in Swiss mouse BMDM assessed as reduction in parasite load at 3.21 uM measured after 48 hrs using PLGA nanoparticle incorporated compound by Giemsa staining based optical microscopic analysis relative to control", "type": "functional", "set-up": "scale not given: the % may be the effect or the level left"}, "[7]": {"system": "Leishmania infantum", "assay": "Antileishmanial activity against Leishmania infantum MON-1 intracellular amastigotes infected in Swiss mouse BMDM assessed as reduction in parasite load at 14.3 uM measured after 48 hrs using gold nanoparticle incorporated compound by Giemsa staining based optical microscopic analysis relative to control", "type": "functional", "set-up": "scale not given: the % may be the effect or the level left"}, "[8]": {"assay": "Toxicity in BALB/c mouse infected with Leishmania infantum MON-1 promastigotes assessed as biochemical alteration in serum at 10 to 25 mg/kg, ip administered daily for 14 days starting from 28 days post infection using gold nanoparticle incorporated compound", "type": "organism-based", "settings": "in vivo"}, "[9]": {"assay": "Toxicity in BALB/c mouse infected with Leishmania infantum MON-1 promastigotes assessed as swelling of liver at 10 to 25 mg/kg, ip administered daily for 14 days starting from 28 days post infection using gold nanoparticle incorporated compound", "type": "organism-based", "settings": "in vivo"}, "[10]": {"assay": "Toxicity in BALB/c mouse infected with Leishmania infantum MON-1 promastigotes assessed as histological changes at 10 to 25 mg/kg, ip administered daily for 14 days starting from 28 days post infection using gold nanoparticle incorporated compound", "type": "organism-based", "settings": "in vivo"}, "[11]": {"assay": "Toxicity in BALB/c mouse infected with Leishmania infantum MON-1 promastigotes assessed as biochemical alteration in plasma at 10 to 25 mg/kg, ip administered daily for 14 days starting from 28 days post infection using PLGA nanoparticle incorporated compound", "type": "organism-based", "settings": "in vivo"}, "[12]": {"assay": "Toxicity in BALB/c mouse infected with Leishmania infantum MON-1 promastigotes assessed as biochemical alteration in serum at 10 to 25 mg/kg, ip administered daily for 14 days starting from 28 days post infection using PLGA nanoparticle incorporated compound", "type": "organism-based", "settings": "in vivo"}, "[13]": {"assay": "Toxicity in BALB/c mouse infected with Leishmania infantum MON-1 promastigotes assessed as enzymatic alteration in plasma at 10 to 25 mg/kg, ip administered daily for 14 days starting from 28 days post infection using PLGA nanoparticle incorporated compound", "type": "organism-based", "settings": "in vivo"}, "[14]": {"assay": "Toxicity in BALB/c mouse infected with Leishmania infantum MON-1 promastigotes assessed as histological changes at 10 to 25 mg/kg, ip administered daily for 14 days starting from 28 days post infection using PLGA nanoparticle incorporated compound", "type": "organism-based", "settings": "in vivo"}, "[15]": {"assay": "Toxicity in BALB/c mouse infected with Leishmania infantum MON-1 promastigotes assessed as weight loss at 10 to 25 mg/kg, ip administered daily for 14 days starting from 28 days post infection using PLGA nanoparticle incorporated compound", "type": "organism-based", "settings": "in vivo"}, "[16]": {"system": "Leishmania infantum", "assay": "Antileishmanial activity against Leishmania infantum MON-1 promastigotes infected in BALB/c mouse assessed as reduction in spleen parasite load at 25 mg/kg, ip administered daily for 14 days starting from 28 days post infection using gold nanoparticle incorporated compound measured post last dose by Taqman qRT-PCR analysis relative to control", "type": "functional", "set-up": "scale not given: the % may be the effect or the level left"}, "[17]": {"system": "Leishmania infantum", "assay": "Antileishmanial activity against Leishmania infantum MON-1 promastigotes infected in BALB/c mouse assessed as reduction in liver parasite load at 25 mg/kg, ip administered daily for 14 days starting from 28 days post infection using gold nanoparticle incorporated compound measured post last dose by Taqman qRT-PCR analysis relative to control", "type": "functional", "set-up": "scale not given: the % may be the effect or the level left"}, "[18]": {"system": "Leishmania infantum", "assay": "Antileishmanial activity against Leishmania infantum MON-1 promastigotes infected in BALB/c mouse assessed as reduction in liver parasite load at 10 mg/kg, ip administered daily for 14 days starting from 28 days post infection using PLGA nanoparticle incorporated compound measured post last dose by Taqman qRT-PCR analysis", "type": "functional, organism-based"}, "[19]": {"system": "Leishmania infantum", "assay": "Antileishmanial activity against Leishmania infantum MON-1 promastigotes infected in BALB/c mouse assessed as reduction in spleen parasite load at 10 mg/kg, ip administered daily for 14 days starting from 28 days post infection using PLGA nanoparticle incorporated compound measured post last dose by Taqman qRT-PCR analysis", "type": "functional, organism-based"}, "[20]": {"system": "Leishmania infantum", "assay": "Antileishmanial activity against Leishmania infantum MON-1 promastigotes infected in BALB/c mouse assessed as reduction in liver parasite load at 25 mg/kg, ip administered daily for 14 days starting from 28 days post infection using PLGA nanoparticle incorporated compound measured post last dose by Taqman qRT-PCR analysis relative to control", "type": "functional", "set-up": "scale not given: the % may be the effect or the level left"}, "[21]": {"system": "Leishmania infantum", "assay": "Antileishmanial activity against Leishmania infantum MON-1 promastigotes infected in BALB/c mouse assessed as reduction in spleen parasite load at 5 mg/kg, ip administered daily for 14 days starting from 28 days post infection using gold nanoparticle incorporated compound measured post last dose in presence of meglumine antimoniate by Taqman qRT-PCR analysis relative to control", "type": "functional", "set-up": "scale not given: the % may be the effect or the level left"}, "[22]": {"system": "Leishmania infantum", "assay": "Antileishmanial activity against Leishmania infantum MON-1 promastigotes infected in BALB/c mouse assessed as reduction in liver parasite load at 10 mg/kg, ip administered daily for 14 days starting from 28 days post infection using gold nanoparticle incorporated compound measured post last dose in presence of meglumine antimoniate by Taqman qRT-PCR analysis relative to control", "type": "functional", "set-up": "scale not given: the % may be the effect or the level left"}, "[23]": {"assay": "Drug metabolism in human liver microsomes assessed as vorinostat formation at 1 uM measured up to 60 mins by LC-MS/MS analysis", "type": "ADME, Microsome", "settings": "1 h"}, "[24]": {"assay": "Drug metabolism in human liver microsomes assessed as compound 12 formation at 1 uM measured after 30 mins by LC-MS/MS analysis", "type": "ADME, Microsome", "settings": "0.5 h"}, "[25]": {"assay": "Drug metabolism in human liver microsomes assessed as compound 13 formation at 1 uM measured after 30 mins by LC-MS/MS analysis", "type": "ADME, Microsome", "settings": "0.5 h"}, "[26]": {"assay": "Drug metabolism in human liver microsomes assessed as N-oxidation of amide moiety by measuring compound 14 formation at 1 uM measured up to 60 mins by LC-MS/MS analysis", "type": "ADME, Microsome", "settings": "1 h"}, "[27]": {"target": "Cytochrome P450 3A4 (Homo sapiens, UniProt P08684)", "sequence (P08684 whole entry)": "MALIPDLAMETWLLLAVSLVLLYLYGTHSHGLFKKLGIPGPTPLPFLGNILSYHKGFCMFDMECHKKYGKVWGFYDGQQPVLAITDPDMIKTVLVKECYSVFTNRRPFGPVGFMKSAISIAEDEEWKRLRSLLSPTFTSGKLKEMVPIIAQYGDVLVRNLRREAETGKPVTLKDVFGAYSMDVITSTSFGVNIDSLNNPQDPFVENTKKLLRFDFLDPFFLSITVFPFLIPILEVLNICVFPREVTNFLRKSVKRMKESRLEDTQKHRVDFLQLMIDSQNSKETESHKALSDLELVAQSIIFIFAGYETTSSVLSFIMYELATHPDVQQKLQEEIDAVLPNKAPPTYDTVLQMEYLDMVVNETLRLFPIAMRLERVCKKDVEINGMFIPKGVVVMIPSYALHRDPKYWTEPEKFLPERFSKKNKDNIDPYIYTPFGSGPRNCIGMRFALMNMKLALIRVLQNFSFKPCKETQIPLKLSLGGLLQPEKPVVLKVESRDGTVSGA", "assay": "Inhibition of CYP3A4 in human liver microsomes using testosterone as substrate measured after 15 mins by LC-MS/MS analysis", "type": "ADME"}, "[28]": {"target": "Cytochrome P450 2C9 (Homo sapiens, UniProt P11712)", "sequence (P11712 whole entry)": "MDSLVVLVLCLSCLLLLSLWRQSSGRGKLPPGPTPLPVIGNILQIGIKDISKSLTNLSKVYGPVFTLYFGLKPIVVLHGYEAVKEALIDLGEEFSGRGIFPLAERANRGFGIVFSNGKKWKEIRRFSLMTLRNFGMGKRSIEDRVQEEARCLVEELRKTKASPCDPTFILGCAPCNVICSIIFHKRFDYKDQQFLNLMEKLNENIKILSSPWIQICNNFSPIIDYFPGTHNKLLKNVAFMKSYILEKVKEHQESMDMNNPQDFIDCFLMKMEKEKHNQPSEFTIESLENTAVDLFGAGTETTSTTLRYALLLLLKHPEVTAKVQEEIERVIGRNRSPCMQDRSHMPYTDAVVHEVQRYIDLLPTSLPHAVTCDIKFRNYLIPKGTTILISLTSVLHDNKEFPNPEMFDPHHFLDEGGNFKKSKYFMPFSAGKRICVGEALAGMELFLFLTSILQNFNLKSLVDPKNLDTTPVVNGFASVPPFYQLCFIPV", "assay": "Inhibition of CYP2C9 in human liver microsomes using diclofenac as substrate measured after 45 mins by LC-MS/MS analysis", "type": "ADME"}, "[29]": {"assay": "Mutagenicity in Salmonella typhimurium TA98 at 10 to 75 uM measured after 5 days in presence of S9 fraction by Ames test", "type": "toxicity, subcellular", "settings": "salmonella enterica subsp. enterica serovar typhimurium, s9, 120 h"}, "[30]": {"assay": "Mutagenicity in Salmonella typhimurium TA98 at 10 to 75 uM measured after 5 days in absence of S9 fraction by Ames test", "type": "toxicity", "settings": "salmonella enterica subsp. enterica serovar typhimurium, s9, 120 h"}},
  "note": "pIC50: −log10 of the molar value. Active and inactive are the calls of the source. The rule behind the calls is not given here.",
  "data": [
    {"smiles": "O=C(CCCCCCC(=O)Nc1ccccc1)NOC(c1ccccc1)(c1ccccc1)c1ccccc1", "values": [
      {"measurement": "solubility", "setting": "[1]", "value": "< 100", "unit": "µg/mL"},
      {"measurement": "pIC50", "setting": "[2]", "value": 6.00},
      {"measurement": "pIC50", "setting": "[3]", "value": 6.15},
      {"measurement": "pIC50", "setting": "[4]", "value": 5.54},
      {"measurement": "CC50 at 72 h", "setting": "[5]", "value": "> 100000", "unit": "nM"},
      {"measurement": "Activity", "setting": "[6]", "value": 54, "unit": "%"},
      {"measurement": "Activity", "setting": "[7]", "value": 71, "unit": "%"},
      {"measurement": "Activity", "setting": "[8]", "value": "Non-Toxic"},
      {"measurement": "Activity", "setting": "[9]", "value": "Non-Toxic"},
      {"measurement": "Activity", "setting": "[10]", "value": "Non-Toxic"},
      {"measurement": "Activity", "setting": "[11]", "value": "Non-Toxic"},
      {"measurement": "Activity", "setting": "[12]", "value": "Non-Toxic"},
      {"measurement": "Activity", "setting": "[13]", "value": "Non-Toxic"},
      {"measurement": "Activity", "setting": "[14]", "value": "Non-Toxic"},
      {"measurement": "Activity", "setting": "[15]", "value": "Non-Toxic"},
      {"measurement": "Activity", "setting": "[16]", "value": 96, "unit": "%"},
      {"measurement": "Activity", "setting": "[17]", "value": 68, "unit": "%"},
      {"measurement": "Activity", "setting": "[18]", "value": "inactive"},
      {"measurement": "Activity", "setting": "[19]", "value": "inactive"},
      {"measurement": "Activity", "setting": "[20]", "value": 60, "unit": "%"},
      {"measurement": "Activity", "setting": "[21]", "value": 84, "unit": "%"},
      {"measurement": "Activity", "setting": "[22]", "value": 100, "unit": "%"},
      {"measurement": "Drug metabolism", "setting": "[23]", "value": "Metabolite_Notdetected"},
      {"measurement": "Drug metabolism", "setting": "[24]", "value": "Metabolite_Detected"},
      {"measurement": "Drug metabolism", "setting": "[25]", "value": "Metabolite_Detected"},
      {"measurement": "Drug metabolism", "setting": "[26]", "value": "Metabolite_Detected"},
      {"measurement": "pIC50", "setting": "[27]", "value": 5.25},
      {"measurement": "pIC50", "setting": "[28]", "value": 5.60},
      {"measurement": "Activity", "setting": "[29]", "value": "Non-Toxic"},
      {"measurement": "Activity", "setting": "[30]", "value": "Non-Toxic"}
    ]}
  ]
}
